# From ChEMBL document CHEMBL1143819, “In vitro activities of miltefosine and two novel antifungal biscationic salts against a panel of 77 dermatophytes” (2007)
# Columns and labels:
# Format in all cases: functional
# Details in all cases: 168 h
# Trichophyton rubrum = assay: Antifungal activity against Trichophyton rubrum after 7 days by broth microdilution test
# [1] = tested on: Trichophyton mentagrophytes; assay: Antifungal activity against Trichophyton mentagrophytes after 7 days by broth microdilution test
# Trichophyton tonsurans = assay: Antifungal activity against Trichophyton tonsurans after 7 days by broth microdilution test
# Trichophyton soudanense = assay: Antifungal activity against Trichophyton soudanense after 7 days by broth microdilution test
# Trichophyton violaceum = assay: Antifungal activity against Trichophyton violaceum after 7 days by broth microdilution test
# Trichophyton = assay: Antifungal activity against Trichophyton sp. after 7 days by broth microdilution test
# Epidermophyton floccosum = assay: Antifungal activity against Epidermophyton floccosum after 7 days by broth microdilution test
# Microsporum canis = assay: Antifungal activity against Microsporum canis after 7 days by broth microdilution test
# Nannizzia gypsea = assay: Antifungal activity against Microsporum gypseum after 7 days by broth microdilution test
# Paraphyton cookei = assay: Antifungal activity against Microsporum cookei after 7 days by broth microdilution test
# Microsporum = assay: Antifungal activity against Microsporum sp. after 7 days by broth microdilution test
# Candida = assay: Antifungal activity against Candida after 7 days by broth microdilution test
# [2] = Antifungal activity against Cryptococcus after 7 days by broth microdilution test
MIC (Trichophyton rubrum) [µg/mL],MIC50 (Trichophyton rubrum) [µg/mL],MIC90 (Trichophyton rubrum) [µg/mL],MIC [1] [µg/mL],MIC50 [1] [µg/mL],MIC90 [1] [µg/mL],MIC (Trichophyton tonsurans) [µg/mL],MIC50 (Trichophyton tonsurans) [µg/mL],MIC (Trichophyton soudanense) [µg/mL],MIC (Trichophyton violaceum) [µg/mL],MIC (Trichophyton) [µg/mL],MIC50 (Trichophyton) [µg/mL],MIC90 (Trichophyton) [µg/mL],MIC (Epidermophyton floccosum) [µg/mL],MIC (Microsporum canis) [µg/mL],MIC (Nannizzia gypsea) [µg/mL],MIC (Paraphyton cookei) [µg/mL],MIC (Microsporum) [µg/mL],MIC50 (Microsporum) [µg/mL],MIC90 (Microsporum) [µg/mL],also measured,SMILES
0.05,0.063,0.125,0.063,0.063,0.125,0.04,0.031,0.059,0.063,0.074,0.063,0.125,0.081,0.101,0.084,0.153,0.106,0.125,0.125,MIC90 (Trichophyton tonsurans): 0.063 µg/mL,CN(Cc1ccc(C(C)(C)C)cc1)Cc1cccc2ccccc12 [BUTENAFINE]
0.547,0.5,1,1.13,1,2,0.398,0.25,0.52,0.328,0.652,0.5,1,0.548,0.555,0.842,0.866,0.75,1,1,MIC90 (Trichophyton tonsurans): 1 µg/mL,CCCCCCCCCCCCCCCCOP(=O)([O-])OCC[N+](C)(C)C [MILTEFOSINE]
0.035,0.031,0.063,0.03,0.031,0.063,0.03,–,0.039,0.063,0.044,0.031,0.063,0.059,0.083,0.065,0.077,0.075,0.063,0.125,–,CN(C/C=C/C#CC(C)(C)C)Cc1cccc2ccccc12 [TERBINAFINE]
10.4,8,16,9.01,8,16,2.8,2,14.5,8.96,6.98,8,16,7.63,2.95,2.41,1.06,2.24,2,4,MIC90 (Trichophyton tonsurans): 8 µg/mL; MIC (Candida): 0.6 µg/mL; MIC [2]: 0.6 µg/mL,CCCCCc1cc[n+](CCCCCCCCCCCC[n+]2ccc(CCCCC)cc2)cc1.[Cl-].[Cl-]
1.96,2,4,1.68,2,4,1.65,2,3.42,3.3,1.99,2,4,0.226,1.23,3.68,6,2.63,4,8,MIC90 (Trichophyton tonsurans): 4 µg/mL,CCC(C)n1ncn(-c2ccc(N3CCN(c4ccc(OCC5COC(Cn6cncn6)(c6ccc(Cl)cc6Cl)O5)cc4)CC3)cc2)c1=O (stereo not given) [ITRACONAZOLE]
